Among the test systems are HOP-92; SK-MEL-28; NCI/ADR-RES; MOLT-4; HCC 2998; A498; SNB-75; HT-29; LOX IMVI; UACC-62; A549; PC-3; BT-549; EKVX; Hs-578T; HL-60; SF-539; SF-268; KM12.
Test in all cases: inhibition of tumour cell growth, NCI panel, 48 h

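Cultured in 96-well plates, cells were exposed to test compound for 48 hours across five concentrations. GI50 marks 50% less growth.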 Active and inactive are the calls of the source. No stated cut-off is given here; in the data, active = GI50 up to about 1.1 µM and inactive = higher.

On to `O=[N+]([O-])c1ccc(/N=N\c2c(O)c(S(=O)(=O)O)cc3cc(S(=O)(=O)O)ccc23)cc1`, for which the GI50 with HOP-92, with SK-MEL-28, with NCI/ADR-RES, with MOLT-4, in the assay on HCC 2998 and in the assay on A498 was > 100 µM (inactive) throughout. Besides, the GI50 with SNB-75, with HT-29, in the assay on LOX IMVI, with UACC-62, with A549 and in the assay on PC-3 was > 100 µM (inactive) in each case. Besides, the GI50 in the assay with BT-549, in the assay on EKVX, in the assay with Hs-578T, in the assay with HL-60 and in the assay with SF-539 was > 100 µM (inactive) throughout.

Take `CCOC(=O)c1cc2cc(Cc3ccc4[nH]c(C(=O)OCC)cc4c3)ccc2[nH]1`: the GI50 was 12.3 µM (inactive) in the assay with HOP-92; 29.4 µM (inactive) in the assay on SK-MEL-28; 13.4 µM (inactive) with NCI/ADR-RES; > 100 µM (inactive) in the assay with MOLT-4; 91.6 µM (inactive) in the assay on HCC 2998; 17.3 µM (inactive) in the assay with A498. In addition, the GI50 in the assay on SNB-75 is 12.2 µM (inactive); in the assay with HT-29, 35.4 µM (inactive); with LOX IMVI it was 38.7 µM (inactive); in the assay with UACC-62, 13.6 µM (inactive); in the assay with SF-268 it was 13.5 µM (inactive); in the assay on PC-3 it was 34.3 µM (inactive). Moreover, the GI50 with BT-549 is 12.6 µM (inactive); in the assay on KM12, 23.7 µM (inactive); in the assay on EKVX, 21.5 µM (inactive); with Hs-578T, 12.6 µM (inactive); in the assay with HL-60, 9.35 µM (inactive); with SF-539, 13.7 µM (inactive).

Consider `N=c1c2c(=S)n(-c3ccccc3)c(=S)n(-c3ccccc3)c2nc(SCCCN2CCCCC2)n1-c1ccccc1`, for which the GI50 in the assay on HOP-92 is 1.78 µM (inactive); with SK-MEL-28, 2.11 µM (inactive); in the assay on NCI/ADR-RES, 2.91 µM (inactive); in the assay on MOLT-4, 0.118 µM (active); in the assay on HCC 2998 it was 1.49 µM (inactive); with A498, 2.52 µM (inactive). Also, the GI50 is 1.73 µM (inactive) with SNB-75; 2.09 µM (inactive) in the assay on HT-29; 0.91 µM (active) in the assay with LOX IMVI; 1.64 µM (inactive) in the assay on UACC-62; 1.83 µM (inactive) with A549; 1.99 µM (inactive) in the assay with SF-268. Besides, the GI50 was 1.66 µM (inactive) with PC-3; 1.75 µM (inactive) in the assay on BT-549; 1.82 µM (inactive) with KM12; 1.98 µM (inactive) with EKVX; 2.79 µM (inactive) with Hs-578T; 1.81 µM (inactive) with HL-60. Further, in the assay with SF-539, the GI50 was 2.93 µM (inactive).

For `ClCCCSSCCCCl`, the GI50 in the assay with HOP-92 is 16.2 µM (inactive); in the assay on SK-MEL-28, 45 µM (inactive); in the assay with NCI/ADR-RES, 34.4 µM (inactive); in the assay on MOLT-4 it was 2.06 µM (inactive); with HCC 2998, 36.1 µM (inactive); in the assay with A498 it was 38.7 µM (inactive). The GI50 in the assay with SNB-75 was 37.8 µM (inactive); in the assay with HT-29, 27.4 µM (inactive); with LOX IMVI, 27.2 µM (inactive); with UACC-62, 30.3 µM (inactive); in the assay with A549, 38.6 µM (inactive); in the assay on SF-268, 39.5 µM (inactive). Besides, the GI50 in the assay on PC-3 is 24.3 µM (inactive); in the assay on BT-549 it was 21.5 µM (inactive); in the assay on KM12, 32.3 µM (inactive); with EKVX, 74 µM (inactive); in the assay on Hs-578T, 17.8 µM (inactive); in the assay on HL-60, 3.86 µM (inactive). Further, in the assay on SF-539, the GI50 is 20.7 µM (inactive).

`COc1ccc(/C=C(/C)[N+](=O)[O-])cc1`: the GI50 with HOP-92 is 2 µM (inactive); with SK-MEL-28, 2.65 µM (inactive); in the assay with NCI/ADR-RES, 3.41 µM (inactive); in the assay on MOLT-4, 1.37 µM (inactive); in the assay on HCC 2998 it was 1.77 µM (inactive); in the assay with A498, 2.7 µM (inactive). Also, the GI50 in the assay on SNB-75 is 1.26 µM (inactive); in the assay on HT-29, 3.1 µM (inactive); in the assay on LOX IMVI, 1.48 µM (inactive); with UACC-62 it was 1.68 µM (inactive); in the assay on A549, 4.21 µM (inactive); with SF-268, 3.15 µM (inactive). Also, the GI50 in the assay on PC-3 was 2.16 µM (inactive); in the assay with BT-549, 2.75 µM (inactive); in the assay with KM12, 1.67 µM (inactive); with EKVX, 2.13 µM (inactive); in the assay on Hs-578T, 9.02 µM (inactive); in the assay with HL-60 it was 2.62 µM (inactive). Further, the GI50 with SF-539 was 1.72 µM (inactive).

For the compound `Cc1cnc(-c2c[nH]c3ccccc23)nc1-c1c[nH]c2ccccc12`, the GI50 with HOP-92 was 2.03 µM (inactive); in the assay with NCI/ADR-RES it was 7.67 µM (inactive); in the assay with MOLT-4 it was 4.2 µM (inactive); with HCC 2998 it was 4.67 µM (inactive); with A498, 2.6 µM (inactive); in the assay with SNB-75, 2.39 µM (inactive). Besides, the GI50 was 4.18 µM (inactive) with HT-29; 3.62 µM (inactive) in the assay with LOX IMVI; 4.27 µM (inactive) in the assay on UACC-62; 3.64 µM (inactive) in the assay on A549; 15.9 µM (inactive) in the assay on SF-268; 3.49 µM (inactive) with PC-3. In addition, the GI50 was 19 µM (inactive) with BT-549; 3.78 µM (inactive) in the assay with KM12; 6.21 µM (inactive) in the assay on EKVX; 17.9 µM (inactive) in the assay with Hs-578T; 5 µM (inactive) with HL-60; 11.7 µM (inactive) with SF-539.

In the case of `O=C(O)/C=C\C(=O)Nc1ccc2c(c1)C(=O)c1cc(F)ccc1-2`, the GI50 in the assay on HOP-92, with SK-MEL-28, with NCI/ADR-RES, in the assay on MOLT-4, in the assay with A498 and in the assay with SNB-75 was > 100 µM (inactive) in each case. Further, the GI50 in the assay on HT-29, in the assay on LOX IMVI, in the assay with UACC-62, with A549, in the assay with SF-268 and in the assay with PC-3 was > 100 µM (inactive) throughout. For the same compound, the GI50 in the assay with BT-549 is > 100 µM (inactive); in the assay on KM12, > 100 µM (inactive); in the assay on EKVX, > 100 µM (inactive); in the assay with Hs-578T, 54.3 µM (inactive); with HL-60, > 100 µM (inactive); with SF-539, > 100 µM (inactive).

In the case of `COc1ccc(/C=N/c2c(O)ccc3ccccc23)cc1OC`, the GI50 with HOP-92 was 1.95 µM (inactive); in the assay on SK-MEL-28 it was > 100 µM (inactive); in the assay with NCI/ADR-RES, > 100 µM (inactive); in the assay with HCC 2998 it was > 100 µM (inactive); in the assay on A498, > 100 µM (inactive); in the assay on SNB-75, 47.2 µM (inactive). Also, the GI50 with HT-29 was 98.9 µM (inactive); with LOX IMVI, 46.8 µM (inactive); with UACC-62, 72.6 µM (inactive); in the assay with A549, 54.6 µM (inactive); in the assay on SF-268, 19.4 µM (inactive); with PC-3 it was > 100 µM (inactive). Besides, the GI50 with BT-549 is 89.3 µM (inactive); in the assay with KM12 it was > 100 µM (inactive); in the assay on EKVX, > 100 µM (inactive); in the assay on Hs-578T it was 4.36 µM (inactive); with HL-60, 22.1 µM (inactive); in the assay with SF-539, > 100 µM (inactive).

As for `Cc1ccc2c(c1)Sc1ccc(/N=N/N(C)C)cc1N2C`, the GI50 in the assay with HOP-92 is 48.5 µM (inactive); in the assay on SK-MEL-28, > 100 µM (inactive); with NCI/ADR-RES, > 100 µM (inactive); in the assay on MOLT-4 it was 57.7 µM (inactive); with HCC 2998, > 100 µM (inactive); in the assay with A498 it was > 100 µM (inactive). Besides, the GI50 in the assay on SNB-75 is > 100 µM (inactive); in the assay on HT-29, > 100 µM (inactive); in the assay on LOX IMVI it was 35.8 µM (inactive); in the assay on UACC-62, > 100 µM (inactive); in the assay on A549, > 100 µM (inactive); with SF-268 it was > 100 µM (inactive). Besides, the GI50 with PC-3 is 71.1 µM (inactive); in the assay with BT-549, 71 µM (inactive); in the assay on KM12, 48.8 µM (inactive); in the assay with EKVX, > 100 µM (inactive); in the assay with Hs-578T, > 100 µM (inactive); with HL-60 it was 64.6 µM (inactive).

Consider `C/C(=N\NC(=S)N1CCCC1)c1nc2cccnc2[nH]1`, for which the GI50 with HOP-92 is 0.681 µM (active); in the assay on SK-MEL-28, 0.349 µM (active); in the assay on NCI/ADR-RES it was 0.335 µM (active); in the assay with MOLT-4 it was 0.171 µM (active); in the assay on HCC 2998 it was 19.3 µM (inactive); in the assay with A498 it was 0.869 µM (active). The GI50 with SNB-75 is 3.85 µM (inactive); with HT-29 it was 0.394 µM (active); in the assay with LOX IMVI it was 0.178 µM (active); with UACC-62 it was 0.259 µM (active); in the assay with A549, 0.223 µM (active); in the assay with SF-268, 0.185 µM (active). In addition, the GI50 in the assay with PC-3 is 0.355 µM (active); with BT-549 it was 0.129 µM (active); in the assay with KM12, 0.321 µM (active); with Hs-578T, 13.2 µM (inactive); with HL-60, 0.162 µM (active); in the assay on SF-539 it was 0.0863 µM (active).

With `CCOC(=O)CCc1c(C)nc2c(C)c3c([nH]c4ccc(Cl)cc43)c(C)c2c1O`, the GI50 is 15.8 µM (inactive) with HOP-92; 14.1 µM (inactive) in the assay on SK-MEL-28; 17.3 µM (inactive) with NCI/ADR-RES; 6.01 µM (inactive) with MOLT-4; 14.1 µM (inactive) in the assay with HCC 2998; 1.8 µM (inactive) in the assay with A498. For the same compound, the GI50 is 4.37 µM (inactive) in the assay on SNB-75; 4.75 µM (inactive) in the assay on HT-29; 10.9 µM (inactive) in the assay with LOX IMVI; 4.51 µM (inactive) with A549; 14.3 µM (inactive) in the assay on SF-268; 4.19 µM (inactive) with PC-3. The GI50 was 10.1 µM (inactive) in the assay with BT-549; 11.7 µM (inactive) in the assay on KM12; 10.2 µM (inactive) with EKVX; 17.6 µM (inactive) with Hs-578T; 4.94 µM (inactive) in the assay with HL-60; 11.2 µM (inactive) in the assay on SF-539.

The record behind these values is ChEMBL document CHEMBL1201862, “PubChem BioAssay data set” (2004).
